Experiment [1] deals with T1, IDO1 expressed in MCF-7 cells (Homo sapiens, UniProt P14902).
T1 construct: endogenous in cells; host or cells: MCF-7 (IFN-γ induced)
The experiment can be described thus: IDO1 inhibitory assay in cell lines (kynurenine, IFN-γ induced), MCF-7. Format: cell-based. To be noted: MCF7; 100 μM inhibitor concentration. As for the experimental part: (§1) IDO1 cellular activity assay was carried out by standard literature protocols. […] First of all, cells grew in high glucose DMEM medium containing 10% FBS and antibiotics. […] Then, 1 × 10^4 cells were seeded in 96-well plates and cultivated in carbon dioxide incubator at 37 °C containing 5% CO2 for 24 h. On day two, each well in the plates were treated with fresh DMEM medium, which contained L-Trp (20 μg/mL), IFN-γ (10 ng/mL), and different concentrations of inhibitor. The plate was incubated for 48 h further. Then, 140 μL of supernatant from each well was transferred into centrifuge tubes correlatively. An amount of 10 μL of 30% trichloroacetic acid (w/v) was added to each tube aimed to precipitate proteins. Subsequently, sample incubation (65 °C, 30 min) was required to make the N′-formylkynurenine (NFK) change into kynurenine which was the final product. Soon afterwards, the sample was centrifuged at 8000 rpm for 10 min. An amount of 100 μL supernatant from each tube was transferred into a new 96-well plate with an equal amount of 2% pDMAB added. The concentration of kynurenine could be measured because it reacts with pDMAB to form a product with a UV–vis absorption at 492 nm. To estimate cell viability, 1 × 10^4 normal cells named L02 were seeded in 96-well flat bottom plates with a final volume of 200 μL of DMEM complete growth medium. After being incubated for 24 h at 37 °C, the culture was replaced by a fresh complete growth medium (200 μL) and four inhibitors (200 μM) were added individually. Then, 48 h later, the medium was replaced by PBS (180 μL) mixed with CCK8 solution (20 μL) in each well. Cell viability was evaluated by testing the OD450nm. Finally, all data in cell experiments were processed by GraphPad Prism 7.00 to obtain the IDO1 inhibitory percentage of each inhibitor in the cells and the cell viability.

Experiment [2] addresses IDO1 expressed in HeLa cells (Homo sapiens, UniProt P14902). The experiment can be described thus: IDO1 inhibitory assay in cell lines (kynurenine, IFN-γ induced), HeLa. To be noted: 100 μM inhibitor concentration. Format: cell-based. The protocol: as §1
The target in experiment [3] is IDO1 expressed in CT26 cells (Mus musculus, UniProt P28776). Description: IDO1 inhibitory assay in cell lines (kynurenine, IFN-γ induced), CT26. To be noted: 100 μM inhibitor concentration. Format: cell-based. The protocol:
as §1

Experiment [4] addresses T2, IDO1 expressed in 4T1 cells (Mus musculus, UniProt P28776).
T2 construct: endogenous in cells; host or cells: 4T1 (IFN-γ induced)
Description: IDO1 inhibitory assay in cell lines (kynurenine, IFN-γ induced), 4T1. Format: cell-based. To be noted: 100 μM inhibitor concentration. As for the experimental part: as §1

In experiment [5] the target is T3, IDO1 (Homo sapiens, UniProt P14902). The experiment can be described thus: Enzyme-based IDO1 inhibitory assay (UV–vis, product at 320 nm). To be noted: for IC50: 100 μM L-Trp, mean ± SD, three determinations; for Ki: L-Trp 50, 100, 150 μM, [S]/[V] against [I] plot (Cornish-Bowden); for Type of Inhibition: position of intersections in [S]/[V] against [I] plot. Format: biochemical. As for the experimental part: The IDO1 inhibitory assay was performed according to standard literature protocols with some modifications. The UV–vis method was used for evaluating the inhibitory activity of inhibitors against IDO1. Specifically, IDO1 (1 μM, 1 mL) was prepared by phosphate buffer (100 mM, pH 6.5) containing catalase (200 μg/mL), methylene blue (10 μM), and ascorbic acid (10 mM, pH 6.5). Concentrations of every inhibitor were varied from 1 to 200 μM, and experimental samples were incubated at 37 °C for 10 min. Then, a certain concentration of L-Trp was added before monitoring the product at 320 nm by UV–vis spectrophotometer immediately.
T3 sequence (P14902 whole entry): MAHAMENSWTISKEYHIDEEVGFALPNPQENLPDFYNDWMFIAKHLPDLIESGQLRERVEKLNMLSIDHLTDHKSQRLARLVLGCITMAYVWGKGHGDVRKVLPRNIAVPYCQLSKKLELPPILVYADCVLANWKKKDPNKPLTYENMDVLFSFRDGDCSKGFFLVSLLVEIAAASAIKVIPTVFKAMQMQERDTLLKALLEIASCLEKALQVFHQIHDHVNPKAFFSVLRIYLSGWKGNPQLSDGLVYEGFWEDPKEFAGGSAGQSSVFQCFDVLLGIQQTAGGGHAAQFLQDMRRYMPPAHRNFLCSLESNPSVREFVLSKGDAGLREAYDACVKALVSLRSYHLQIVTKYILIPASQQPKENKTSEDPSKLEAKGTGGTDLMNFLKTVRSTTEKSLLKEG
The inhibition percent of each inhibitor was determined by [1 − (A/B)] × 100%, where A is the enzymatic activity of IDO1 with inhibitor added and B is the absence of the inhibitor. […] The plot was described by the percent inhibition against Log10 concentration of the inhibitor.
Ki values of inhibitors were obtained by intersection of the three fitted lines in the plot, which was the absolute value of the X-axis value of the intersection. The plot was described by [S]/[V] against inhibitor concentration, where [S] and [V] were the substrate concentration and the reaction velocity, respectively. Furthermore, protein-inhibitor binding modes were determined by the position of the intersections in the plot. Data processing was performed by Origin 7.5.

The target in experiment [6] is T3, IDO1. Description: Determination of the inhibition types (reversible or irreversible; [V] versus [E] plot). Format: biochemical. To be noted: 100 μM inhibitor, 100 μM L-Trp. The protocol: Based on the results of UV–vis spectra, the determination of inhibitory types was carried out according to the reference. The inhibitor was defined as reversible if the fitted lines were intersected in the plot (Figure 4A).
Different concentrations of IDO1 (1 mL) were prepared with 100 mM phosphate buffer (pH 6.5) containing methylene blue (10 μM), catalase (200 μg/mL), and ascorbic acid (10 mM, pH 6.5). Each sample was incubated at 37 °C for 10 min. An amount of 100 μM L-Trp was added before measuring by UV–vis spectrophotometer at 320 nm. The only difference for the other set of groups was 100 μM inhibitor was added in each sample before incubating. The data were analyzed by Origin 7.5, and plot of reaction rate [V] versus enzyme amount [E] was proposed using linear fit. The determination of inhibitory types was based on the linear trend of the fitted plot.

Entries after “also recorded” stand apart in the source; their conditions may differ.

Data on 4 compounds can be found in PMC9104902, “Spiro-Oxindole Skeleton Compounds Are Efficient Inhibitors for Indoleamine 2,3-Dioxygenase 1: An Attractive Target for Tumor Immunotherapy” (International Journal of Molecular Sciences, 2022).

T2 sequence (P28776 whole entry): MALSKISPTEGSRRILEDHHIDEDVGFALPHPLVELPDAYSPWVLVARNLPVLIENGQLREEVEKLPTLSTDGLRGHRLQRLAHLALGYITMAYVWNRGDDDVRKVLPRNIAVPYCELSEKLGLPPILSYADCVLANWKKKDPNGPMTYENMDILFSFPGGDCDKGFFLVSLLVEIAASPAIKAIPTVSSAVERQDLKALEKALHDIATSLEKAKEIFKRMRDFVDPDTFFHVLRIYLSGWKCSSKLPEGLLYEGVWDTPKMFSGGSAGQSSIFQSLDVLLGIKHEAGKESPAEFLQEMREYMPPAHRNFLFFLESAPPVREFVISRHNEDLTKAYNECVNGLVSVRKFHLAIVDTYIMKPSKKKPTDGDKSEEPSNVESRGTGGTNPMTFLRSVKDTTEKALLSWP
Sequence of IDO1 expressed in CT26 cells (P28776 whole entry): as above
T1 sequence (P14902 whole entry): as the sequence (P14902 whole entry) above
Sequence of IDO1 expressed in HeLa cells (P14902 whole entry): as above

A word on the inhibition: it is the share of the control response that was lost under treatment. A lower inhibition goes with little suppression. Broadly, the IC50 is the concentration at which inhibition is half-maximal. A word on the Ki: it is the dissociation constant of the complex between target and ligand, obtained from inhibition or displacement. A high value points to a looser hold on the target. As for `COC(=O)[C@H]1N[C@@H](c2ccccc2)[C@@]2(C(=O)Nc3ccccc32)[C@@H]1c1ccccc1` [inhibitor 1], the inhibition at 100 µM in experiment [1] was 23.7 ± 2%; in experiment [2], 25.5 ± 1.5%; in experiment [3] it was 3.7 ± 0.8%; in experiment [4] it was 2.6 ± 0.6%. On IDO1 [5], this compound had an IC50 of 25.2 ± 3.6 µM. The Ki at IDO1 [5] is 42.3 ± 0.8 µM. At IDO1 [5], the “Type of Inhibition” value is on record as “Uncompetitive”.

As for `COC(=O)[C@H]1N[C@@H](c2ccccc2)[C@@]2(C(=O)Nc3cc(C)ccc32)[C@@H]1c1ccccc1` [inhibitor 2], the inhibition at 100 µM in experiment [1] amounted to 22.4 ± 0.4%; in experiment [2], 27.1 ± 2.1%; in experiment [3] it was 4.2 ± 0.5%; in experiment [4], 4.2 ± 1%. The midpoint of inhibition on IDO1 [5], the IC50, lay at 29.4 ± 1.3 µM. Moreover, the affinity on IDO1 [5], expressed as Ki, was 49.5 ± 6 µM. Besides, at IDO1 [5], the “Type of Inhibition” value is on record as “Uncompetitive”.

Take `COC(=O)[C@H]1N[C@@H](c2ccccc2)[C@@]2(C(=O)Nc3cc(OC)ccc32)[C@@H]1c1ccccc1` [inhibitor 3]: the inhibition at 100 µM was determined as 27.8 ± 0.3% in experiment [1], 26.7 ± 0.7% in experiment [2], 6.4 ± 0.8% in experiment [3] and 4.3 ± 0.1% in experiment [4]. Further, the “Inhibition type (reversible or irreversible)” value at IDO1 [6] is on record as “reversible”. The IC50 on IDO1 [5] amounted to 7.9 ± 1.7 µM. Further, the “increase of inhibitory activity by substituent modification” value at IDO1 [5] (IC50, methoxyl group at 6-position versus inhibitors 1 and 2) came out at 3 times. Moreover, the “IDO1 inhibitory activity (IC50) relative to positive control 4−PI” value at IDO1 [5] (IC50 ratio versus 4−PI) is “~six-fold; also recorded: ~six times”. The compound also gave a Ki on IDO1 [5] of 63.6 ± 3.5 µM. The “Type of Inhibition” value on IDO1 [5] was “Uncompetitive”.

In the case of `COC(=O)[C@@H]1N[C@H](c2ccc(Br)cc2)[C@]2(C(=O)Nc3ccccc32)[C@H]1c1ccccc1` [inhibitor 4], the inhibition at 100 µM in experiment [1] came to 20.7 ± 0.1%; in experiment [2] it was 25.6 ± 1.3%; in experiment [3], 1.7 ± 0.5%; in experiment [4] it was 2.8 ± 0.3%. The compound further yielded an IC50 at IDO1 [5] of 64.6 ± 3.9 µM. The compound also gave a Ki at IDO1 [5] of 101 ± 4.4 µM. The “Type of Inhibition” value at IDO1 [5] is given as “Uncompetitive”.
